The structures appear in SMILES notation.

For assay [1], the target named is T1, Human Recombinant Glucocorticoid Receptor (Homo sapiens, UniProt P04150).
T1 construct: This GR was a full-length steroid hormone receptor; host or cells: recombinant baculovirus-infected insect cells
T1 sequence (P04150 1-777): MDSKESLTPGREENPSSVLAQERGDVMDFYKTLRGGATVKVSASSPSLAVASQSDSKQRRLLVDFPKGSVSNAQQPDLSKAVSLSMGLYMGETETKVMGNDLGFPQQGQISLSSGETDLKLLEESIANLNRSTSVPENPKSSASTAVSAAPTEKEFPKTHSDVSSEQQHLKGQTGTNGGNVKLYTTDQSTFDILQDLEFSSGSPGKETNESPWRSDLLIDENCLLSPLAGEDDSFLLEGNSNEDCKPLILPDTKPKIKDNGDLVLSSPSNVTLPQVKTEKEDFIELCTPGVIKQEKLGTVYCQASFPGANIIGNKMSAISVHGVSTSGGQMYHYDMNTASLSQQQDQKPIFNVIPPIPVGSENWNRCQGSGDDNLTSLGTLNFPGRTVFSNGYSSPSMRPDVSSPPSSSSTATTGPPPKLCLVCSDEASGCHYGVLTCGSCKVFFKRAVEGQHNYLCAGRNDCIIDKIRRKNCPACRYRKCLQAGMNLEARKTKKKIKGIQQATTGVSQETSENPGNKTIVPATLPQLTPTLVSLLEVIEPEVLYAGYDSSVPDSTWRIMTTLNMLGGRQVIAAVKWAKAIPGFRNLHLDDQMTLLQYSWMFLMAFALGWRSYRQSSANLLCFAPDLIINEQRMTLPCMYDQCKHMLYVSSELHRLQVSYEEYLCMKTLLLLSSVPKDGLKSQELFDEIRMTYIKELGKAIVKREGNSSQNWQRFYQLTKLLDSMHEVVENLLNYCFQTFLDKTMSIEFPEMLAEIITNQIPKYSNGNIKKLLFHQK
The experiment in a line: Glucocorticoid receptor binding displacement assay with 3H-dexamethasone. The settings on record: displacement of 2.5 nM 3H-dexamethasone, 2.5 hrs at 4° C.; Ki from IC50 by Cheng-Prusoff; read-out: GR Binding Ki. The method, then: Binding protocol: Compounds were tested in a binding displacement assay using human recombinant glucocorticoid receptor with ^3H-dexamethasone as the ligand. The source of the receptor was recombinant baculovirus-infected insect cells. This GR was a full-length steroid hormone receptor likely to be associated with heat-shock and other endogenous proteins.
For the IC50 determinations, test compounds were tested at 6 concentrations in duplicate. Test compounds were diluted from 10 mM stock in 100% DMSO. The tested solutions were prepared at 2× final assay concentration in 2% DMSO/assay buffer.
All reagents and the assay plate were kept on ice during the addition of reagents. The reagents were added to wells of a v-bottomed polypropylene plate in the following order: 25 μl of 10 nM 3H-dexamethasone solution, 50 μl of TB/NSB/compound solution and 25 μl of 2 nM GR solution. After the additions, the incubation mixture was mixed and incubated for 2.5 hrs at 4° C.
Alter 2.5 hrs incubation, unbound counts were removed with dextran coated charcoal (DCC) as follows: 15 μl of DCC solution (10% DCC in assay buffer) was added to all wells and mixed (total volume 115 μl). The plate was centrifuged at 4000 rpm for 10 minutes at 4° C. 75 μl of the supernatants was carefully pipetted into an optiplate. 150 μl of scintillation cocktail were added (Microscint-40, Perkin Elmer). The plate was vigorously shaken for approx. 10 minutes and counted on Topcount.
The IC50 values were converted to Ki (the inhibition constant) using the Cheng-Prusoff equation.
Reagents: Assay buffer: 10 mM potassium phosphate buffer pH 7.6 containing 5 mM DTT, 10 mM sodium molybdate, 100 μM EDTA and 0.1% BSA.

Assay [2] has as its target T2, glucocorticoid receptors (endogenous) in SW1353/MMTV-5 cells (Homo sapiens, UniProt P04150).
T2 construct: contains endogenous glucocorticoid receptors; endogenous in cells; host or cells: SW1353/MMTV-5 (human chondrosarcoma, stably transfected with pMAMneo-Luc reporter)
T2 sequence (P04150 1-777): T1 sequence (P04150 1-777)
Put plainly: GR functional assay using SW1353/MMTV-5 cells (MMTV-GRE luciferase reporter). It counts as cell-based. The protocol:
SW1353/MMTV-5 is an adherent human chondrosarcoma cell line that contains endogenous glucocorticoid receptors. It was transacted with a plasmid (pMAMneo-Luc) encoding firefly luciferase located behind a glucocorticoid-responsive element (GRE) derived from a viral promoter (long terminal repeat of mouse mammary tumor virus). A stable cell line SW1353/MMTV-5 was selected with geneticin, which was required to maintain this plasmid.
SW1353/MMTV-5 cells were distributed in 96-well plates and incubated in medium (without geneticin) for 24 hrs.
On the technique in general: In a reporter assay the amount or activity of a reporter protein is the signal.

For the compound `O=c1[nH]c(C2=CCC(c3ccccc3)CC2)c(Cc2ccccc2)c(=O)[nH]1` (stereo not drawn) [Compound 2a, 5-Benzyl-6-(4-phenylcyclohex-1-enyl)-1H-pyrimidine-2,4-dione], the Ki in assay [1] was over 0.01 µM; in assay [2], over 0.1 µM.
The matching figures for `O=c1[nH]c(=O)c(Cc2ncccn2)c([C@H]2CC[C@H](c3ccccc3)CC2)[nH]1` [Compound 3k]: over 0.01 µM and over 0.1 µM.
For `O=c1[nH]c(=O)c(Cc2ncccc2Cl)c([C@H]2CC[C@H](c3ccccc3)CC2)[nH]1` [Compound 3m] the same measures were over 0.01 µM and over 0.1 µM.
For the compound `O=c1[nH]c([C@H]2CC[C@H](c3ccccc3)CC2)c(Cc2cccc(Cl)c2Cl)c(=O)n1CCCN1CCOCC1` [Compound 13c], the Ki in assay [1] is over 0.01 µM; in assay [2] it was over 0.1 µM.
As for `O=c1[nH]c(=O)c(Cc2ccc(F)c(Cl)c2)c([C@H]2CC[C@H](c3ccccc3)CC2)[nH]1` [Compound 3aa], the Ki in assay [1] was over 0.01 µM; in assay [2], under 0.05 µM.
The matching figures for `O=c1[nH]c(=O)c(Cc2ccc(F)cc2F)c([C@H]2CC[C@H](c3ccccc3)CC2)[nH]1` [Compound 3y]: 0.005 to 0.01 µM and 0.05 to 0.1 µM.
Regarding `Cc1ccnc(Cc2c(=O)[nH]c(=O)[nH]c2[C@H]2CC[C@H](c3ccccc3)CC2)c1` [Compound 3q], the figures for the Ki in assay [1] and in assay [2] were over 0.01 µM and under 0.05 µM, respectively.
The matching figures for `Cc1cccc(Cc2c(=O)[nH]c(=S)[nH]c2[C@H]2CC[C@H](c3ccccc3)CC2)c1` [Compound 12g, (E)-6-(4-Phenylcyclohexyl)-2-thioxo-5-(3-methylbenzyl)-2,3-dihydro-1H-pyrimidin-4-one]: over 0.01 µM and over 0.1 µM.
For the compound `Cc1cccc(Cc2c(=O)[nH]c(=O)[nH]c2[C@H]2CC[C@H](c3ccccc3)CC2)n1` [Compound 3j], the values for the inhibition constant Ki in assay [1] and in assay [2] were over 0.01 µM and 0.05 to 0.1 µM, respectively.
The matching figures for `O=c1[nH]c(=O)c(Cc2nccs2)c([C@H]2CC[C@H](c3ccccc3)CC2)[nH]1` [Compound 3o]: over 0.01 µM and over 0.1 µM.
Take `Cc1cc(Cc2c(=O)[nH]c(=O)[nH]c2[C@H]2CC[C@H](c3ccccc3)CC2)ccn1` [Compound 3n]: the Ki in assay [1] was over 0.01 µM; in assay [2], over 0.1 µM.
Turning to `COCCn1c(=O)[nH]c([C@H]2CC[C@H](c3ccccc3)CC2)c(Cc2cccc(C(F)(F)F)c2)c1=O` [Compound 13g, (E)-3-(2-Methoxy-ethyl)-6-(4-phenyl-cyclohexyl)-5-(3-trifluoromethyl-benzyl)-1H-pyrimidine-2,4-dione], the Ki in assay [1] is over 0.01 µM; in assay [2] it was over 0.1 µM.
For `O=c1[nH]c(=O)c(Cc2c(Cl)cccc2Cl)c([C@H]2CC[C@H](c3ccccc3)CC2)[nH]1` [Compound 3e] the same measures were 0.005 to 0.01 µM and 0.05 to 0.1 µM.
As for `O=c1[nH]c([C@H]2CC[C@H](c3ccccc3)CC2)c(Cc2cccc(C(F)(F)F)c2)c(=O)n1CCO` [Compound 13f, (E)-3-(2-Hydroxy-ethyl)-6-(4-phenyl-cyclohexyl)-5-(3-trifluoromethyl-benzyl)-1H-pyrimidine-2,4-dione], the Ki in assay [1] was over 0.01 µM; in assay [2], over 0.1 µM.
For `O=c1[nH]c(=O)c(Cc2cc(C(F)(F)F)ccn2)c([C@H]2CC[C@H](c3ccccc3)CC2)[nH]1` [Compound 3r], the figures for the Ki in assay [1] and in assay [2] were over 0.01 µM and 0.05 to 0.1 µM, respectively.
The matching figures for `O=c1[nH]c(=O)c(Cc2cccc(C(F)(F)F)c2)c([C@H]2CC[C@H](c3ccccc3)CC2)[nH]1` [Compound 3b, (E)-6-(4-Phenylcyclohexyl)-5-(3-trifluoromethylbenzyl)-1H-pyrimidine-2,4-dione]: 0.005 to 0.01 µM and under 0.05 µM.
Consider `O=c1[nH]c(=O)c(Cc2cccc(Cl)c2Cl)c([C@H]2CC[C@H](c3ccccc3)CC2)[nH]1` [Compound 3d], for which the Ki in assay [1] was under 0.005 µM; in assay [2], under 0.05 µM.
Regarding `COc1ccccc1Cc1c(=O)[nH]c(=O)[nH]c1[C@H]1CC[C@H](c2ccccc2)CC1` [Compound 3u], the Ki was under 0.005 µM in assay [1] and 0.05 to 0.1 µM in assay [2].
Regarding `Cc1cccc(Cc2c(C3=CCC(c4ccccc4)CC3)[nH]c(=O)[nH]c2=O)c1` (stereo not drawn) [Compound 2b], the Ki in assay [1] lay in the range of 0.005 to 0.01 µM; in assay [2], 0.05 to 0.1 µM.
In the case of `O=c1[nH]c(=O)c(Cc2ccccc2)c([C@H]2CC[C@@H](c3ccccc3)CC2)[nH]1` [Compound 3bb], the Ki in assay [1] was over 0.01 µM; in assay [2], over 0.1 µM.
In the case of `CCc1ccccc1Cc1c(=O)[nH]c(=O)[nH]c1[C@H]1CC[C@H](c2ccccc2)CC1` [Compound 3s], the Ki in assay [1] was in the range of 0.005 to 0.01 µM; in assay [2] it was 0.05 to 0.1 µM.
For `Cc1ccccc1Cc1c(C2=CCC(c3ccccc3)CC2)[nH]c(=O)[nH]c1=O` (stereo not drawn) [Compound 2d] the same measures were over 0.01 µM and over 0.1 µM.
Regarding `O=c1[nH]c(=O)c(Cc2ccccc2Cl)c([C@H]2CC[C@H](c3ccccc3)CC2)[nH]1` [Compound 3c], the inhibition constant Ki in assay [1] was under 0.005 µM; in assay [2], under 0.05 µM.
The matching figures for `Cc1csc(Cc2c(=O)[nH]c(=O)[nH]c2[C@H]2CC[C@H](c3ccccc3)CC2)n1` [Compound 3t]: over 0.01 µM and over 0.1 µM.
In the case of `O=c1[nH]c(=O)c(Cc2ccccn2)c([C@H]2CC[C@H](c3ccccc3)CC2)[nH]1` [Compound 3p], the Ki in assay [1] was over 0.01 µM; in assay [2], over 0.1 µM.
Regarding `CN(C)c1cccc(Cc2c(=O)[nH]c(=O)[nH]c2[C@H]2CC[C@H](c3ccccc3)CC2)n1` [Compound 3v], the Ki in assay [1] was 0.005 to 0.01 µM; in assay [2], under 0.05 µM.
For `O=c1[nH]c(=O)c(Cc2cccc(F)c2F)c([C@H]2CC[C@H](c3ccccc3)CC2)[nH]1` [Compound 3z] the same measures were under 0.005 µM and under 0.05 µM.
The matching figures for `Cc1cccc(Cc2c(=O)n(C)c(=O)[nH]c2[C@H]2CC[C@H](c3ccccc3)CC2)c1` [Compound 13a, (E)-3-Methyl-5-(3-methylbenzyl)-6-(4-phenylcyclohexyl)-1H-pyrimidine-2,4-dione]: 0.005 to 0.01 µM and under 0.05 µM.
The matching figures for `Cn1c(=O)[nH]c([C@H]2CC[C@H](c3ccccc3)CC2)c(Cc2cccc(C(F)(F)F)c2)c1=O` [Compound 13d, (E)-3-Methyl-6-(4-phenyl-cyclohexyl)-5-(3-trifluoromethyl-benzyl)-1H-pyrimidine-2,4-dione]: 0.005 to 0.01 µM and over 0.1 µM.
As for `O=c1[nH]c(C2=CCC(c3ccccc3)CC2)c(Cc2ccccc2Cl)c(=O)[nH]1` (stereo not drawn) [Compound 2c], the Ki in assay [1] was 0.005 to 0.01 µM; in assay [2], over 0.1 µM.
As to `O=c1[nH]c(=O)c(Cc2ccc(F)c(F)c2)c([C@H]2CC[C@H](c3ccccc3)CC2)[nH]1` [Compound 3w], the results for the Ki in assay [1] and in assay [2] were over 0.01 µM and 0.05 to 0.1 µM, respectively.
For `Cc1cccc(Cc2c(=O)[nH]c(=O)[nH]c2[C@H]2CC[C@H](c3ccccc3)CC2)c1` [Compound 3h, (E)-5-(3-Methylbenzyl)-6-(4-phenylcyclohexyl)-1H-pyrimidine-2,4-dione] the same measures were under 0.005 µM and under 0.05 µM.
Regarding `Nc1cccc(Cc2c(=O)[nH]c(=O)[nH]c2[C@H]2CC[C@H](c3ccccc3)CC2)n1` [Compound 3cc], the Ki was over 0.01 µM in assay [1] and over 0.1 µM in assay [2].

In general, Ki refers to a measure of affinity in units of concentration, obtained from inhibition or displacement.

The values are drawn from patent publication US8906917B2, “Pyrimidine cyclohexyl glucocorticoid receptor modulators” (Corcept Therapeutics, Inc., priority 2011, dated 2014).
